Experimental data: ChEMBL document CHEMBL1201862, “PubChem BioAssay data set” (2004)
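Results reflect a 48-hour exposure of cells in 96-well plates to compound at five concentrations. Here, GI50 denotes the concentration required for 50% inhibition of growth.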 The source made the active and inactive calls. Cut-off read from the data, not from the text of the source: active = GI50 up to about 1.1 µM and inactive = higher.

Columns and labels:
Test in all cases: NCI tumour cell line growth inhibition, 48 h
786-0 = test system: 786-0
A498 = test system: A498
A549 = test system: A549
ACHN = test system: ACHN
BT-549 = test system: BT-549
CAKI-1 = test system: CAKI-1
CCRF-CEM = test system: CCRF-CEM
COLO 205 = test system: COLO 205
DU-145 = test system: DU-145
EKVX = test system: EKVX
HCC 2998 = test system: HCC 2998
HCT-116 = test system: HCT-116
HCT-15 = test system: HCT-15
HL-60 = test system: HL-60
HOP-62 = test system: HOP-62
HOP-92 = test system: HOP-92
HT-29 = test system: HT-29
Hs-578T = test system: Hs-578T
IGROV-1 = test system: IGROV-1
K562 = test system: K562
KM12 = test system: KM12
LOX IMVI = test system: LOX IMVI
M14 = test system: M14
MCF7 = test system: MCF7
MDA-MB-231 = test system: MDA-MB-231
MDA-MB-435 = test system: MDA-MB-435
MDA-N = test system: MDA-N
MOLT-4 = test system: MOLT-4
Malme-3M = test system: Malme-3M
NCI-H226 = test system: NCI-H226
NCI-H23 = test system: NCI-H23
NCI-H460 = test system: NCI-H460
NCI-H522 = test system: NCI-H522
NCI/ADR-RES = test system: NCI/ADR-RES
OVCAR-3 = test system: OVCAR-3
OVCAR-4 = test system: OVCAR-4
OVCAR-5 = test system: OVCAR-5
OVCAR-8 = test system: OVCAR-8
PC-3 = test system: PC-3
RPMI-8226 = test system: RPMI-8226
RXF 393 = test system: RXF 393
SF-268 = test system: SF-268
SF-295 = test system: SF-295
SF-539 = test system: SF-539
SK-MEL-28 = test system: SK-MEL-28
SK-MEL-2 = test system: SK-MEL-2
SK-MEL-5 = test system: SK-MEL-5
SK-OV-3 = test system: SK-OV-3
SN12C = test system: SN12C
SNB-19 = test system: SNB-19
SNB-75 = test system: SNB-75
SR = test system: SR
SW-620 = test system: SW-620
T47D = test system: T47D
TK-10 = test system: TK-10
UACC-257 = test system: UACC-257
UACC-62 = test system: UACC-62
UO-31 = test system: UO-31

CCC(=O)Nc1cccc(/N=C/c2ccc(OC(=O)/C=C\c3ccccc3)cc2)c1
GI50 (786-0): 65.9 µM (inactive) | GI50 (A498): > 75 µM (inactive) | GI50 (A549): 54 µM (inactive) | GI50 (ACHN): 39 µM (inactive) | GI50 (BT-549): 37 µM (inactive) | GI50 (CAKI-1): > 75 µM (inactive) | GI50 (CCRF-CEM): > 75 µM (inactive) | GI50 (COLO 205): 64.7 µM (inactive) | GI50 (DU-145): 15.5 µM (inactive) | GI50 (EKVX): 52.1 µM (inactive) | GI50 (HCC 2998): 32.3 µM (inactive) | GI50 (HCT-116): > 75 µM (inactive) | GI50 (HCT-15): 35.8 µM | GI50 (HL-60): > 75 µM (inactive) | GI50 (HOP-62): > 75 µM (inactive) | GI50 (HOP-92): 35.2 µM (inactive) | GI50 (HT-29): 36.3 µM (inactive) | GI50 (Hs-578T): 32.5 µM (inactive) | GI50 (IGROV-1): 37.8 µM (inactive) | GI50 (K562): 39.3 µM (inactive) | GI50 (KM12): 49.2 µM (inactive) | GI50 (LOX IMVI): 40.6 µM (inactive) | GI50 (M14): > 75 µM (inactive) | GI50 (MCF7): 25.2 µM (inactive) | GI50 (MDA-MB-231): 73.3 µM (inactive) | GI50 (MDA-MB-435): > 75 µM (inactive) | GI50 (MDA-N): 58.6 µM (inactive) | GI50 (MOLT-4): 27 µM (inactive) | GI50 (Malme-3M): 40.4 µM (inactive) | GI50 (NCI-H226): 33.6 µM (inactive) | GI50 (NCI-H23): > 75 µM (inactive) | GI50 (NCI-H460): 61.5 µM (inactive) | GI50 (NCI-H522): 33.7 µM (inactive) | GI50 (NCI/ADR-RES): > 75 µM (inactive) | GI50 (OVCAR-3): 43.7 µM (inactive) | GI50 (OVCAR-4): 45.4 µM (inactive) | GI50 (OVCAR-5): > 75 µM (inactive) | GI50 (OVCAR-8): > 75 µM (inactive) | GI50 (PC-3): 67 µM (inactive) | GI50 (RPMI-8226): 43.8 µM (inactive) | GI50 (RXF 393): 12.2 µM (inactive) | GI50 (SF-268): 36.7 µM (inactive) | GI50 (SF-295): 41.3 µM (inactive) | GI50 (SF-539): 14.8 µM (inactive) | GI50 (SK-MEL-28): 61.4 µM (inactive) | GI50 (SK-MEL-2): > 75 µM (inactive) | GI50 (SK-MEL-5): 29.9 µM (inactive) | GI50 (SK-OV-3): > 75 µM (inactive) | GI50 (SN12C): > 75 µM (inactive) | GI50 (SNB-19): > 75 µM (inactive) | GI50 (SNB-75): 12.3 µM (inactive) | GI50 (SR): 54.7 µM (inactive) | GI50 (SW-620): > 75 µM (inactive) | GI50 (T47D): 8.26 µM (inactive) | GI50 (TK-10): > 75 µM (inactive) | GI50 (UACC-257): > 75 µM (inactive) | GI50 (UACC-62): 30.8 µM (inactive) | GI50 (UO-31): 51.2 µM (inactive)
